# Assay results from US20100203012A1, “IAP BIR DOMAIN BINDING COMPOUNDS” (Aegera Therapeutics, Inc., priority 2007, published 2010).
# Experiments:
# HCT116 cells = assay: Cytotoxicity assay (MTT) on HCT-116 cells co-treated with HGS-ETR1; type: cell-based; settings: Homo sapiens, co-treated with HGS-ETR1 40 ng/mL, 72 hours
# Procedure: (§1) SKOV3 (ovarian) and HCT-116 (colon) cancer cells were cultured in McCoy's 5A media supplemented with 10% FBS and 100 units/mL of Penicillin and Streptomycin.
# (§2) Cytotoxicity assays were performed on various cell lines including SKOV3 and HCT-116 cells. Cells were seeded in 96 well plates at a respective density of 2000 and 5000 cells per well and incubated at 37° C. in presence of 5% CO2 for 24 hours. Selected compounds were diluted into the media at various concentrations ranging from 0.01 nM up to 100 nM. Diluted compounds were added onto the SKOV3 cells. HCT-116 cells were co-treated with Trail receptor monoclonal antibody agonist (HGS-ETR^1, 40 ng/mL). After 72 hours, cellular viability was evaluated by MTT conversion. A solution of 3-(4,5-dimethylthiazol-2-yl)-2,5-diphenyltetrazolium bromide (MTT) was added onto cells for a period of 1 to 4 hours. Media was removed and replaced with isopropanol. Conversion of MTT by viable cells was detected by absorbance at 570 nm. The percentage of viability was expressed in percentage of the signal obtained with non treated cells.
# SKOV3 cells = assay: Cytotoxicity assay (MTT) on SKOV3 cells; type: cell-based; settings: Homo sapiens, SK-OV-3, 72 hours, single agent
# Procedure: as §1, §2
# [1] = target: T1, XIAP BIR2-BIR3-ring (GST-linker BIR 2 BIR3Ring) (Homo sapiens, UniProt P98170); assay: Fluorescence polarization competition assay, BIR2-BIR3-ring, probe P2; type: binding; settings: ki derived from IC50, read-out: ki in the BIR2-BIR3-ring FP assay
# T1 construct: made in house; host or cells: Escherichia coli DH5-alpha
# T1 sequence (P98170 93-497): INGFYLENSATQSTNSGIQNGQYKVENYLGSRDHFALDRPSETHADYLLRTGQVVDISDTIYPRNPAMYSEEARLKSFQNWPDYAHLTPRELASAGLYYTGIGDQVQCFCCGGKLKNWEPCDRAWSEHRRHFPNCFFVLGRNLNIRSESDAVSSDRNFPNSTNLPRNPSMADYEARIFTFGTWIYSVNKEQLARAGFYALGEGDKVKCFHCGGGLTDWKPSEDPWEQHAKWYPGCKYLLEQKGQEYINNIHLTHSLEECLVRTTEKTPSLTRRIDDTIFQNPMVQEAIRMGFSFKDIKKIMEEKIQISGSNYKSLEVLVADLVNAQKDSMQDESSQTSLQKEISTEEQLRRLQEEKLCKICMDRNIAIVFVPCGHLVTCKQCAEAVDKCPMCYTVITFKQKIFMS
# Source text: GST-linker BIR 2 BIR3Ring: XIAP coding sequence from amino acids 93-497 cloned into PGex4T1 via BamH1 and XhoI. Amino acids 93-497 were amplified from full length XIAP in pGex4t3, using the primers: […] and GCTGCATGTGTGTCAGAGG, using standard PCR conditions. The PCR fragment was TA cloned into pCR-2.1 (invitrogen). Linker BIR 2 BIR 3Ring was subcloned into pGex4T1 by BamHI/XhoI digestion. The plasmid was transformed into E. coli DH5α for use in protein expression and purification.
# For all assays, the fluorescence and fluorescence-polarization was evaluated using a Tecan Polarion instrument with the excitation filter set at 485 nm and the emission filter set at 535 nm. […] Upon establishing these conditions, the compounds potency (IC50) and selectivity, was assessed in the presence of a fix defined-amount of target protein and fluorescent probe and a 10 point serial dilution of the selected compounds. […] Auto-fluorescence for each compound was first assessed by performing a reading of the compound/BSA solution alone. Then 25 uL of the fluorescein probe (P1 or P2) diluted into 50 mM MES containing 0.05 mg/ml BSA were added and a reading to detect quenching of fluorescein signal done. Finally 25 uL/well of the target or control protein (GST-BIRs) diluted at the appropriate concentration in 50 mM MES containing 0.05 mg/ml BSA were added and the fluorescence polarization evaluated. […]
Ki [1] [nM],Structure (SMILES),EC50 (HCT116 cells) [nM],EC50 (SKOV3 cells) [nM]
–,CN[C@@H](C)C(=O)N[C@H](C(=O)N1CCN(C(=O)c2ccc(C(=O)N3CCN(C(=O)[C@@H](NC(=O)[C@H](C)NC)C(C)(C)C)[C@H](C(=O)N[C@@H]4CCCc5ccccc54)C3)cc2)C[C@H]1C(=O)N[C@@H]1CCCc2ccccc21)C(C)(C)C [Compound 1],< 50,< 50
–,CN[C@@H](C)C(=O)N[C@H](C(=O)N1CCN(C(=O)CCCCCCCCC(=O)N2CCN(C(=O)[C@@H](NC(=O)[C@H](C)NC)C(C)(C)C)[C@H](C(=O)N[C@@H]3CCCc4ccccc43)C2)C[C@H]1C(=O)N[C@@H]1CCCc2ccccc21)C(C)(C)C [Compound 2],< 50,< 50
< 100,CN[C@@H](C)C(=O)N[C@H](C(=O)N1CCN(C(=O)CNC(=O)c2ccc(-c3ccc(C(=O)NCC(=O)N4CCN(C(=O)[C@@H](NC(=O)[C@H](C)NC)C(C)(C)C)[C@H](C(=O)N[C@@H]5CCCc6ccccc65)C4)cc3)cc2)C[C@H]1C(=O)N[C@@H]1CCCc2ccccc21)C(C)(C)C [Compound 3],–,–
